{
  "source": "paper PMC8149334",
  "about": "(Cancer Chemotherapy and Pharmacology, 2021)",
  "key": {"P-glycoprotein (P-gp)": {"system": "P-glycoprotein (P-gp)", "settings": "cited from earlier work"}, "[1]": {"settings": "in vivo", "protocol": "Additional details of the bioanalytical methods are available in the Supplementary Appendix. Serial blood samples were collected in Parts 1 and 2 on day 1 of cycles 1, 2, and 3, and every 3 cycles thereafter (Supplementary Table 1). […] Concentration–time profiles were plotted for each analyte, and individual and mean plasma concentration–time data and pharmacokinetic parameters were summarized using descriptive statistics.\nPharmacokinetic analyses were performed using the validated Phoenix™ WinNonlin® software (v6.2.1; […]). Noncompartmental analysis (model, Plasma; dose, extravascular) was applied for the pharmacokinetic analysis. The pharmacokinetics outputs were created using SAS v9.3 (SAS Institute Inc., Cary, NC, USA). Summary statistics, including N, mean, SD, % coefficient of variation, geometric mean, median, minimum, and maximum, were calculated for plasma concentration of each analyte at each time point and for the derived pharmacokinetic parameters."}},
  "data": [
    {"compound": "CNC(=O)c1ccc(N2C(=S)N(c3cnc(C#N)c(C(F)(F)F)c3)C(=O)C23CCC3)cc1F", "note": "[Apalutamide, apalutamide]", "values": [
      {"measurement": "Reduction in AUC0–last of fexofenadine", "setting": "P-glycoprotein (P-gp); patients with CRPC", "result": 30, "unit": "%"}
    ]},
    {"compound": "O=C(O)c1cccc2cn(-c3ccc(C4CCCNC4)cc3)nc12", "note": "(stereo not drawn) [M1]", "values": [
      {"measurement": "Metabolite-to-parent ratios", "setting": "[1]", "result": "below 1"}
    ]},
    {"compound": "CO[C@H]1/C=C/O[C@@]2(C)Oc3c(C)c(O)c4c(O)c(c(/C=N/N5CCN(C)CC5)c(O)c4c3C2=O)NC(=O)/C(C)=C\\C=C\\[C@H](C)[C@H](O)[C@@H](C)[C@@H](O)[C@@H](C)[C@H](OC(C)=O)[C@@H]1C", "note": "[Rifampin]", "values": [
      {"measurement": "Decrease in exposure of various P-gp substrates", "setting": "P-glycoprotein (P-gp); human, not told", "result": "≤ 67", "unit": "%"}
    ]}
  ]
}
